{
  "source": "patent US12459931B2",
  "about": "“Benzothiophene derivative regulator, preparation method therefor and use thereof” (Shanghai Hansoh Biomedical Co., Ltd., priority 2019, dated 2025)",
  "key": {"[1]": {"tested_on": "SD rats", "assay": "Toxicity test by repeated intragastric administration for 14 days in SD rats (with toxicokinetics)", "format": "in vivo, Sprague-Dawley (SD) rats", "excerpt": "(§1) VI. Toxicity Test by Repeated Intragastric Administration for 14 Days in SD Rats\n(§2) The objective of this study was to investigate the possible toxicity of compounds after repeated intragastric administration to SD rats for 14 days. • 6.2 Experimental materials and instruments: • 6.2.1 Test compound\n(§3) Test compound 1: the compound of Example 42. • 6.2.2 Vehicle:\n(§4) Name: 0.5% CMC-Na (1% tween80) aqueous solution • 6.2.3 Animal information:\n(§5) Species & strain: Sprague-Dawley (SD) rats\n(§6) […] were divided into […] according to their sex and body weight. 40 rats were used for toxicology study (groups 1 to 4, 5 rats/sex/group), and 24 rats were used for toxicokinetics study (groups 5 to 8, 3 rats/sex/group). The animals in groups 1 and 5 were intragastrically administered with 0.5% CMC-Na (1% tween80) aqueous solution as the vehicle control groups. The animals in groups 2 and 6, 3 and 7, 4 and 8 were intragastrically administered with the compound of Example 42 at a dose of 2, 10 and 30 mg/kg, respectively. The animals were administered once a day for 14 consecutive days. The administration volumes were 10 mL/kg. During the experiment, clinical observation, body weight, food intake, body temperature, clinicopathological indicators (blood cell count, coagulation function, blood biochemistry) and toxicokinetics were monitored. All animals were euthanized on D15. During the experiment, the animals in groups 1 to 4 were subjected to gross anatomical observation. Histopathological examination was carried out on abnormal tissue and brain, kidney, adrenal gland, lung and bronchi, prostate, testis and epididymis. • 6.4 List of test data • 6.4.1 Dying/death"}, "[2]": {"assay": "Toxicity test by repeated intragastric administration for 14 days in SD rats (with toxicokinetics)", "format": "in vivo, Sprague-Dawley (SD) rats", "settings": "both sexes, Sprague-Dawley, rat, in vivo, po; SD rats, intragastric once a day for two weeks; read-out: Maximum tolerated dose (MTD)", "excerpt": "as §1, §2, §3, §4, §5, §6"}, "[3]": {"settings": "SD rats, 2, 10 or 30 mg/kg, two weeks"}},
  "data": [
    {"smiles": "O=C(N[C@H]1CC[C@H](CCN2CCN(c3cccc4sccc34)CC2)CC1)C1(O)CC1", "note": "[Example 42, N-(Trans-4-(2-(4-(benzo[b]thiophen-4-yl)piperazin-1-yl)ethyl)cyclohexyl)-1-hydroxycyclopropane-1-carboxamide]", "values": [
      {"measurement": "Main target organs for toxicity", "setting": "[1]; [3]", "result": "the lungs and adrenal glands"},
      {"measurement": "Main toxic responses: blood counts", "setting": "[1]; [3]", "result": "WBC, Lymph, Retic and PLT are decreased"},
      {"measurement": "Main toxic responses: body weight, food intake and body temperature", "setting": "[1]; [3]", "result": "body weight, food intake and body temperature are decreased"},
      {"measurement": "Main toxic responses: coagulation function", "setting": "[1]; [3]", "result": "FIB wis decreased, and APTT is shortened"},
      {"measurement": "Accumulation", "setting": "[1]; SD rats, 14 days intragastric, 2, 10 or 30 mg/kg", "result": "no accumulation"},
      {"measurement": "Average exposure versus dose", "setting": "[1]; SD rats, female and male, D1 and D14", "result": "increased with the increase of the dose"},
      {"measurement": "MTD at 14 days", "setting": "[2]", "result": 30, "unit": "mg/kg"}
    ]}
  ]
}
